Experimental data published in PubChem BioAssay AID1963856 (Molecular Pharmacology Branch, DTP, NCI, 2024).

System: LG0567-F671-PDC KRAS tumor spheroid viability
Assay: Anticancer human tumor LG0567-F671-PDC patient-derived lung adenocarcinoma cell line growth inhibition [KRAS2]
Settings: spheroids with HUVEC and MSC; for IC50: curve of first compound; for viability, T/C: stronger effect = lower value; active = viability on the fitted dose curve at most 10% of control; inactive = the rest
From the text: Multicellular complex tumor spheroid response to RAS pathway inhibitors in combination with a targeted agents in patient-derived cell lines with oncogenic KRAS variants from multiple cancer types
A high-throughput screen of multi-cell type tumor spheroids was designed to identify active combinations of targeted small molecules and KRAS pathway inhibitors. Complex spheroids include a stromal component modeled by human endothelial cells (HUVEC) and fibroblasts modeled by human mesenchymal stem cells (MSCs). The concentration ranges selected for each drug and investigational agent were based upon clinically achievable concentrations if the clinical Cmax of the agent was known.
Compounds. The drugs and investigational agents: BI-3406 (NSC825286), BAY-293 (NSC824723), batoprotafib (TNO155; NSC825523), sotorasib (AMG 510; NSC818433), MRTX1257 (NSC819558), elimusertib (BAY 1895344; NSC800525), molibresib (GSK525762; NSC774829), temuterkib (LY3214996; NSC803410), venetoclax (NSC766270), alisertib (NSC759677), olaparib (NSC753686), talazoparib (NSC767125), erdafitinib (NSC781556), ipatasertib (NSC767898), cabozantinib (NSC761068), nintedanib (NSC756659), abemaciclib (NSC768073), docetaxel (NSC628503), trametinib (NSC758246), and sapanisertib (NSC764658) were obtained from the National Cancer Institute (NCI) Developmental Therapeutics Program Chemical Repository. The FDA-approved anticancer drug set is available from the Developmental Therapeutics Program. […] The stock solutions were prepared in dimethyl sulfoxide (DMSO, Sigma-Aldrich, St. Louis, MO, cat. D2650) at 800-fold the tested concentration and stored at -70 degrees C prior to their use. All drugs and investigational agents were tested over a range starting from a high concentration at or near the clinical Cmax and decreasing in half-log increments. If the clinical Cmax for an agent had not been determined, the highest concentration tested was 10 microM.
Cell Culture. All cells were maintained in an incubator at 37 degrees C and 5% CO2 with 95% humidity. The PDC lines were cultured according to standard operating procedures established by the NCI PDMR (https://pdmr.cancer.gov/sops/default.htm). Briefly, all PDCs were thawed and cultured in Matrigel-coated flasks prepared with a working solution of 1X Ham's F-12 nutrient mix, without supplementation (Invitrogen, Waltham, MA, cat. 11765054), 100 U/mL penicillin-streptomycin (Invitrogen, cat. 15140122), and 2.5% Matrigel (Corning Inc., Corning, NY, cat. 354248) for the first three passages. All PDCs were cultured in complete DMEM/F-12 media containing advanced DMEM/F-12 (Invitrogen, cat. 12634028), 4.9% defined fetal bovine serum, heat inactivated (HyClone Laboratories Inc., Logan, UT, cat. SH30070.03HI), 389 ng/mL hydrocortisone (Sigma-Aldrich, cat. H4001), 9.7 ng/mL human EGF recombinant protein (Invitrogen, cat. PHG0313), 23.4 microg/mL adenine (Sigma-Aldrich, cat. A2786), 97.3 U/mL penicillin-streptomycin (Invitrogen, cat. 15140122), 1.9 mM L-glutamine (Invitrogen, cat. 25030081), and 9.7 microM Y-27632 dihydrochloride (Tocris Bioscience, Bristol, United Kingdom, cat. 1254). The PDCs were cultured in complete DMEM/F12 media without 9.7 microM Y-27632 dihydrochloride for at least two passages prior to the screen. The established cell line HOP-62 was cultured in RPMI 1640 medium, HEPES (Invitrogen, cat. 22400105) with 10% defined fetal bovine serum (HyClone Laboratories Inc., cat. SH30070.03) and 2 mM L-glutamine (Invitrogen, cat. 25030081). The pooled donor HUVEC were cultured in endothelial cell growth medium 2 (PromoCell, Heidelberg, Germany, cat. C-22011) and the hMSC were cultured in mesenchymal stem cell growth medium 2 (PromoCell, cat. C-28009). For all experiments, HUVEC and hMSC were used at passages </=5, while the malignant cell lines were used at passages </=15. […]

[1] = second compound 0.1 µM, first compound 0.0316 µM
[2] = second compound 0.1 µM, first compound 0.1 µM
[3] = second compound 0.316 µM, first compound 0.0316 µM
[4] = second compound 0.316 µM, first compound 0.1 µM
[5] = second compound 1 µM, first compound 0.0316 µM
[6] = second compound 1 µM, first compound 0.1 µM
[7] = second compound 3.16 µM, first compound 0.0316 µM
[8] = second compound 3.16 µM, first compound 0.1 µM
[9] = second compound 10 µM, first compound 0.0316 µM
[10] = second compound 10 µM, first compound 0.1 µM
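Also: drug exposure lasted seven days after spheroids formed for three days.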

Cn1ncnc1[C@H]1c2n[nH]c(=O)c3cc(F)cc(c23)N[C@@H]1c1ccc(F)cc1 + C=CC(=O)N1CCN(c2nc(=O)n(-c3c(C)ccnc3C(C)C)c3nc(-c4c(O)cccc4F)c(F)cc23)C(C)C1
inactive: viability, T/C (second compound 0.1 µM, first compound 0.000316 µM) 24.7% | viability, T/C (second compound 0.1 µM, first compound 0.001 µM) 27.1% | viability, T/C (second compound 0.1 µM, first compound 0.00316 µM) 21.8% | viability, T/C (second compound 0.1 µM, first compound 0.01 µM) 21.3% | viability, T/C [1] 23.8% | viability, T/C [2] 24.4% | viability, T/C (second compound 0.316 µM, first compound 0.000316 µM) 25.5% | viability, T/C (second compound 0.316 µM, first compound 0.001 µM) 26.2% | viability, T/C (second compound 0.316 µM, first compound 0.00316 µM) 23.1% | viability, T/C (second compound 0.316 µM, first compound 0.01 µM) 20.8% | viability, T/C [3] 24.1% | viability, T/C [4] 21.6% | viability, T/C (second compound 1 µM, first compound 0.000316 µM) 29.7% | viability, T/C (second compound 1 µM, first compound 0.001 µM) 27.1% | viability, T/C (second compound 1 µM, first compound 0.00316 µM) 27.1% | viability, T/C (second compound 1 µM, first compound 0.01 µM) 20.9% | viability, T/C [5] 23.6% | viability, T/C [6] 22.8% | viability, T/C (second compound 3.16 µM, first compound 0.000316 µM) 24.8% | viability, T/C (second compound 3.16 µM, first compound 0.001 µM) 25.9% | viability, T/C (second compound 3.16 µM, first compound 0.00316 µM) 25.2% | viability, T/C (second compound 3.16 µM, first compound 0.01 µM) 25.5% | viability, T/C [7] 23.4% | viability, T/C [8] 21.1% | viability, T/C (second compound 10 µM, first compound 0.000316 µM) 21.9% | viability, T/C (second compound 10 µM, first compound 0.001 µM) 23.5% | viability, T/C (second compound 10 µM, first compound 0.00316 µM) 24.6% | viability, T/C (second compound 10 µM, first compound 0.01 µM) 20.2% | viability, T/C [9] 19.6% | viability, T/C [10] 20.1%
< 0.000316 µM: IC50 (second compound 0.1 µM) | IC50 (second compound 0.316 µM) | IC50 (second compound 1 µM) | IC50 (second compound 3.16 µM) | IC50 (second compound 10 µM)

O=C(c1cc(Cc2n[nH]c(=O)c3ccccc23)ccc1F)N1CCN(C(=O)C2CC2)CC1 + COc1cc2nc(C)nc(NC(C)c3cc(N)cc(C(F)(F)F)c3)c2cc1OC1CCOC1
inactive: viability, T/C [1] 84.3% | viability, T/C [2] 108% | viability, T/C (second compound 0.1 µM, first compound 0.316 µM) 81.8% | viability, T/C (second compound 0.1 µM, first compound 1 µM) 109% | viability, T/C (second compound 0.1 µM, first compound 3.16 µM) 96.8% | viability, T/C (second compound 0.1 µM, first compound 10 µM) 70.3% | viability, T/C [3] 68.5% | viability, T/C [4] 58.5% | viability, T/C (second compound 0.316 µM, first compound 0.316 µM) 67.8% | viability, T/C (second compound 0.316 µM, first compound 1 µM) 64% | viability, T/C (second compound 0.316 µM, first compound 3.16 µM) 57.4% | viability, T/C (second compound 0.316 µM, first compound 10 µM) 70.5% | viability, T/C [5] 102% | viability, T/C [6] 117% | viability, T/C (second compound 1 µM, first compound 0.316 µM) 98% | viability, T/C (second compound 1 µM, first compound 1 µM) 94.1% | viability, T/C (second compound 1 µM, first compound 3.16 µM) 95% | viability, T/C (second compound 1 µM, first compound 10 µM) 81.5% | viability, T/C [7] 69.3% | viability, T/C [8] 68.7% | viability, T/C (second compound 3.16 µM, first compound 0.316 µM) 72.8% | viability, T/C (second compound 3.16 µM, first compound 1 µM) 63% | viability, T/C (second compound 3.16 µM, first compound 3.16 µM) 68.8% | viability, T/C (second compound 3.16 µM, first compound 10 µM) 61.5% | viability, T/C [9] 78.7% | viability, T/C [10] 63.2% | viability, T/C (second compound 10 µM, first compound 0.316 µM) 68% | viability, T/C (second compound 10 µM, first compound 1 µM) 63.2% | viability, T/C (second compound 10 µM, first compound 3.16 µM) 53.1% | viability, T/C (second compound 10 µM, first compound 10 µM) 56.1%
> 10 µM: IC50 (second compound 0.1 µM) | IC50 (second compound 0.316 µM) | IC50 (second compound 1 µM) | IC50 (second compound 3.16 µM) | IC50 (second compound 10 µM)

CCNC(=O)CC1N=C(c2ccc(Cl)cc2)c2cc(OC)ccc2-n2c(C)nnc21 (stereo not drawn)
inactive: viability, T/C (compound 0.0316 µM) 115% [middle of 5 runs] | viability, T/C (compound 0.1 µM) 103% [middle of 5 runs] | viability, T/C (compound 0.316 µM) 80.5% [middle of 5 runs]
